# Laboratory results as given in US10654832B2, “3-(benzoimidazol-2-YL)-indazole inhibitors of the Wnt signaling pathway and therapeutic uses thereof” (Samumed, LLC, priority 2013, dated 2020).
# System: Wnt activity (wnt-responsive SP5 promoter luciferase reporter in SW480 cells)
# Assay: Wnt activity reporter assay (SP5 promoter-firefly luciferase in SW480 cells)
# Type: cell-based
# Conditions: Homo sapiens; SW480 colon cancer cells with SP5 promoter luciferase reporter; 24 h after compound addition; half-log dilutions, three micromolar top concentration; normalized to DMSO; read-out: Wnt inhibition
# Description: The above synthesized compounds were screened using the assay procedure for Wnt activity described below.
# Reporter cell lines were generated by stably transducing cells of cancer cell lines (e.g., colon cancer) with a lentiviral construct that include a wnt-responsive promoter driving expression of the firefly luciferase gene.
# Lentiviral constructs were made in which the SP5 promoter, a promoter having eight TCF/LEF binding sites derived from the SP5 promoter, was linked upstream of the firefly luciferase gene. The lentiviral constructs included a hygromycin resistance gene as a selectable marker. The SP5 promoter construct was used to transduce SW480 cells, a colon cancer cell line having a mutated APC gene that generates a truncated APC protein, leading to de-regulated accumulation of β-catenin.
# Cultured SW480 cells bearing a reporter construct were distributed at approximately 10,000 cells per well into 384 well multiwell plates. Compounds were then added to the wells in half-log dilutions using a three micromolar top concentration. A series of control wells for each cell type received only buffer and compound solvent. Twenty-four hours after the addition of compound, reporter activity for luciferases was assayed, for example, by addition of the BrightGlo luminescence reagent (Promega) and the Victor3 plate reader (Perkin Elmer). Readings were normalized to DMSO only treated cells, and normalized activities were then used for the IC50 calculations.
row,SMILES,IC50 [nM]
1,"CCC(=O)Nc1cncc(-c2ccc3[nH]nc(-c4nc5c(-c6cccc(F)c6)cccc5[nH]4)c3c2)c1 [Compound 1, N-(5-(3-(4-(3-Fluorophenyl)-1H-benzo[d]imidazol-2-yl)-1H-indazol-5-yl)pyridin-3-yl)propionamide]",2
2,"Fc1cccc(-c2cccc3[nH]c(-c4n[nH]c5ccc(-c6cccnc6)cc45)nc23)c1 [Compound 4, 3-(4-(3-Fluorophenyl)-1H-benzo[d]imidazol-2-yl)-5-(pyridin-3-yl)-1H-indazole]",4
3,"Cc1ccncc1-c1ccc2[nH]nc(-c3nc4c(-c5cccc(F)c5)cccc4[nH]3)c2c1 [Compound 5, 3-(4-(3-Fluorophenyl)-1H-benzo[d]imidazol-2-yl)-5-(4-methylpyridin-3-yl)-1H-indazole]",34
4,"CN(C)c1cncc(-c2ccc3[nH]nc(-c4nc5c(-c6cccc(F)c6)cccc5[nH]4)c3c2)c1 [Compound 7, 5-(3-(4-(3-Fluorophenyl)-1H-benzo[d]imidazol-2-yl)-1H-indazol-5-yl)-N,N-dimethylpyridin-3-amine]",8
5,"CC(C)C(=O)Nc1cncc(-c2ccc3[nH]nc(-c4nc5c(-c6cccc(F)c6)cccc5[nH]4)c3c2)c1 [Compound 9, N-(5-(3-(4-(3-Fluorophenyl)-1H-benzo[d]imidazol-2-yl)-1H-indazol-5-yl)pyridin-3-yl)isobutyramide]",250
6,"O=C(Cc1ccccc1)Nc1cncc(-c2ccc3[nH]nc(-c4nc5c(-c6cccc(F)c6)cccc5[nH]4)c3c2)c1 [Compound 10, N-(5-(3-(4-(3-Fluorophenyl)-1H-benzo[d]imidazol-2-yl)-1H-indazol-5-yl)pyridin-3-yl)-2-phenylacetamide]",69
7,"CN(C)Cc1cncc(-c2ccc3[nH]nc(-c4nc5c(-c6cccc(F)c6)cccc5[nH]4)c3c2)c1 [Compound 13, 1-(5-(3-(4-(3-Fluorophenyl)-1H-benzo[d]imidazol-2-yl)-1H-indazol-5-yl)pyridin-3-yl)-N,N-dimethylmethanamine]",11
8,"CC(C)(C)CC(=O)Nc1cncc(-c2ccc3[nH]nc(-c4nc5c(-c6cccc(F)c6)cccc5[nH]4)c3c2)c1 [Compound 16, N-(5-(3-(4-(3-Fluorophenyl)-1H-benzo[d]imidazol-2-yl)-1H-indazol-5-yl)pyridin-3-yl)-3,3-dimethylbutanamide]",31
9,"CCCCC(=O)Nc1cncc(-c2ccc3[nH]nc(-c4nc5c(-c6cccc(F)c6)cccc5[nH]4)c3c2)c1 [Compound 18, N-(5-(3-(4-(3-Fluorophenyl)-1H-benzo[d]imidazol-2-yl)-1H-indazol-5-yl)pyridin-3-yl)pentanamide]",30
10,"O=C(Nc1cncc(-c2ccc3[nH]nc(-c4nc5c(-c6cccc(F)c6)cccc5[nH]4)c3c2)c1)C1CC1 [Compound 19, N-(5-(3-(4-(3-Fluorophenyl)-1H-benzo[d]imidazol-2-yl)-1H-indazol-5-yl)pyridin-3-yl)cyclopropanecarboxamide]",5
11,"O=C(Nc1cncc(-c2ccc3[nH]nc(-c4nc5c(-c6cccc(F)c6)cccc5[nH]4)c3c2)c1)C1CCCC1 [Compound 21, N-(5-(3-(4-(3-Fluorophenyl)-1H-benzo[d]imidazol-2-yl)-1H-indazol-5-yl)pyridin-3-yl)cyclopentanecarboxamide]",50
12,"O=C(Nc1cncc(-c2ccc3[nH]nc(-c4nc5c(-c6cccc(F)c6)cccc5[nH]4)c3c2)c1)C1CCCCC1 [Compound 22, N-(5-(3-(4-(3-Fluorophenyl)-1H-benzo[d]imidazol-2-yl)-1H-indazol-5-yl)pyridin-3-yl)cyclohexanecarboxamide]",180
13,"CC(C)CC(=O)Nc1cncc(-c2ccc3[nH]nc(-c4nc5c(-c6ccc(F)cc6)cccc5[nH]4)c3c2)c1 [Compound 26, N-(5-(3-(4-(4-Fluorophenyl)-1H-benzo[d]imidazol-2-yl)-1H-indazol-5-yl)pyridin-3-yl)-3-methylbutanamide]",179
